This note sets out measurements from patent US8236756B2, “Prodrugs cleavable by CD26” (Consejo Superior de Investigaciones Clentificas (CSIC), priority 2003, dated 2012).

One data set deals with T1, purified CD26 (Homo sapiens, UniProt P27487).
T1 construct: made in house
Description: Conversion of peptide prodrugs to parent compound by purified CD26 (HPLC). In kind it is biochemical. The conditions noted are these: for Conversion % to parent compound by purified CD26, 1 h / Conversion % to parent compound by purified CD26, 4 h / Conversion % to parent compound by purified CD26, 24 h: Table 1. The protocol:
To reveal whether CD26 recognizes such synthetic di/tripeptide derivatives of lipophilic nucleoside analogues as a substrate, 50 μM CAM-405 or CAM-431 was exposed to 5.7 mUnits of purified CD26, and the conversion of CAM-405 or CAM-431 to respectively CAM-212 or CAM-403 (Val-NAP-TSAO) was recorded in function of incubation time by HPLC analysis. […] Within the first 10 min of the reaction, at least 20% of CAM-405 had been converted to CAM-212, fifty percent of the TSAO dipeptide derivative was converted to CAM-212 within 30 min of the reaction and ˜67% of CAM-405 was hydrolyse after 60 min. Thus, the reaction rate started already to slow down after the first 10 min of drug exposure (FIG. 2). Most likely, the release of the reaction product Val-Pro dose-dependently feed-back inhibited the CD26-catalysed dipeptidyl-peptidase reaction. […] Thus, in the presence of 50 μM CAM-405, hydrolysis of 50% of CAM-405 to CAM-212 results in the appearance of 25 μM Val-Pro, that is a concentration that (feed-back) inhibits the CD26 reaction by ˜50%. These findings explain why the CD26-catalysed reaction levels-off shortly after the start of the exposure of the drug to CD26. […] Thus, a further level of modulation of the rate of prodrug release can be introduced by choosing a dipeptide moiety that competes for the active site of CD26, until the dipeptide has diffused from the tissue wherein CD26 is present. The inhibitory activity of any dipeptide can be evaluated by the above mentioned assay.
The conversion rate in function of time is given in Table 1 for NAP-TSAO-dipeptides where the dipeptide consists of: Val-Pro, Val-D-Pro, Asp-Pro, Lys-Pro, Tyr-Pro, Gly-Pro, Val-4-hydroxyPro, Gly-3,4-dihydroxyPro, but also Val-Gly, Val-Ala, Val-Leu and Val-Phe. It is clear that the conversion rate to the parent NAP-TSAO differs depending the nature of the dipeptide. Also, when the terminal amine of the dipeptide has been blocked by a lipophilic group (i.e. methyl, Z or Fmoc), the prodrug looses measurable substrate activity for CD26.
The conversion rate in function of time is given in Table 2 for tetrapeptide NAP-TSAO compounds where the tetrapeptide consists of: Val-Pro-Val-Pro [SEQ ID no:6] (CAM 467), Val-Ala-Val-Pro [SEQ ID no:7] (CAM 473) or Lys-Pro-Asp-Pro [SEQ ID no:8] (CAM 477). […] Only traces of dipeptide prodrug (CAM 405) is seen as intermediate in the conversion of the tetrapeptide CAM 473 to NAP-TSAO.
All enzyme activity assays were performed in Eppendorf tubes on a heating block at 37° C. To each tube were added 32 μl CD26 (at a final concentration of 1.5 milliUnits) or 10 μl foetal bovine serum (BS) (final concentration: 2.5% BS in PBS; preheated at 56° C. for 30 min) or 10 μl human serum (HS) (final concentration: 2.5% HS in PBS), 40 μl of appropriate concentrations of inhibitor (Diprotin A) solution in PBS (for the exact concentrations, see the legend to FIG. 5), CAM-405 (the substrate of the reaction) at […] (final concentration) and PBS to reach a total volume of 400 μl. The pH of the reaction mixture was 7.5, which is virtually identical to the physiological pH of plasma. The reaction was started by the addition of the enzyme or serum and carried out at 37° C. After 5 hr, 100 μl reaction mixture was taken from the Eppendorf tube and added to 200 μl cold methanol to precipitate the proteins. After 10 min standing on ice, the contents of the tubes were centrifuged and the supernatants analysed by HPLC on a reverse phase column (RP-8, Merck Laboratories). CAM-405 was separated from CAM-212 (the product of the reaction) by a gradient of 50 mM sodium phosphate+5 mM heptane sulfonic acid pH 3.2 (Buffer A) and acetonitrile (Buffer B) as follows: Buffer A: 98%+2% Buffer B, 2 min; linear gradient to 20% Buffer. […]

The nature of data set [1]: Conversion of prodrugs to parent compound by human serum diluted in PBS. In kind it is in vitro ADME. To be noted: 50 μM; 20% human serum in PBS (FIG. 6). As to the method: Human and bovine serum were incubated for 3 hr, 6 hr and/or 24 hr at 37° C. in the presence of 50 μM CAM-405. The sera were diluted in PBS at a final concentration of 0.5, 1, 2.5 or 5%. […] The longer the incubation time, and the higher the serum concentration used, the faster the conversion of CAM-405 to CAM-212 occurred (FIG. 4). As also noted for CD26, HS- and BS-catalysed reaction slowed down in function of time, and was not linearly proportional with serum concentration (FIG. 4). These findings provide again evidence for a pronounced feed-back inhibition of dipeptidyl-peptidase activity in human and bovine serum by the released Val-Pro dipeptide. HS was more efficient in converting CAM-405 to CAM-212 than BS (FIG. 4). Since 1% HS is able to hydrolyse ˜20% of 50 μM CAM-405 within 3 hrs of incubation, it could be calculated that undiluted serum would have been able to convert this prodrug amount to its parent compound at a hundred fold higher speed, that is, within 1.8 min, provided that no feed-back inhibition would have occurred (as expected in the intact organism where release of Pro-Val would immediately result in disappearance from the plasma due to several mechanisms including organ uptake, renal excretion, etc.).
Only a very limited amount of NAP-TSAO (but not D-Pro-NAP-TSAO) had been detected (FIG. 6).
Ten percent BS or HS converted 40 to 70% of PI-2 to PI-1 in one hour (FIG. 10). Two percent BS and HS converted PI-2 to PI-1 by 8% and 25%, respectively. After 4 hrs, 35% and 95% of compound was hydrolyzed by BS and HS, respectively (FIG. 11).
The TSAO derivatives depicted in FIG. 1 can be synthesised as described below. GlyPro-pNA (GP-pNA), Diprotin A and Val-Pro were purchased from Sigma-Aldrich (Bornem, Belgium). CD26 was purified as described before [De Meester et al. J. Immunol. Methods (1996), 189: 99-105]. Foetal bovine serum (FBS) was obtained from Integro (Dieren, The Netherlands). Human serum represented a pooled serum that was derived from 10 healthy volunteers (blood donors). Human lymphocyte CEM cells were derived from the ATCC (Rockville, Md.).

A short description of data set [2]: Solubility in Milli-Q water. In kind it is physicochemical. To be noted: 1 mg/ml in Milli-Q water; 2 × 10 sec sonication, 4 days shaking, room temperature; centrifugation, U.V. spectrum. From the text: It is also clear that the nature of the dipeptide moiety present on NAP-TSAO markedly affect prodrug solubility in water.

T1 sequence (P27487 whole entry): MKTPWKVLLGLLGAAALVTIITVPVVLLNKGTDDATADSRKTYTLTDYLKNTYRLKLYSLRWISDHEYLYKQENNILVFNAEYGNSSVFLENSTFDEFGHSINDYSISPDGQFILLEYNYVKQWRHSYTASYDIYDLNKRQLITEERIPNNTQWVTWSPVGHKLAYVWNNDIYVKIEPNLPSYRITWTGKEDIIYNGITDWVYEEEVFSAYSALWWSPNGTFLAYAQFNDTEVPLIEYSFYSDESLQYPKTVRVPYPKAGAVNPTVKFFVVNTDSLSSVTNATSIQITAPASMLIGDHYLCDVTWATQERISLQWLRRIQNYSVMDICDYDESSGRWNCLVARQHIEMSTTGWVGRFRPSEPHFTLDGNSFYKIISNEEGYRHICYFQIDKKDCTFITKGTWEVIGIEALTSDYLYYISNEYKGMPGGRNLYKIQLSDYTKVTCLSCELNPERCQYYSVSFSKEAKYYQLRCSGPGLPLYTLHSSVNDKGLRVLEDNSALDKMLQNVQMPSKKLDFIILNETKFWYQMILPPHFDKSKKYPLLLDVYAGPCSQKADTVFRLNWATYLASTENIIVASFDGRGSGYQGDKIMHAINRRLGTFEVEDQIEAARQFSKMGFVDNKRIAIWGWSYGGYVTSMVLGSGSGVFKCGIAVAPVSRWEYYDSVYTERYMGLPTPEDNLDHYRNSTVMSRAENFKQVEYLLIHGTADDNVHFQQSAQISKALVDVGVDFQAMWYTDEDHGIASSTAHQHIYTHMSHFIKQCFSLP

For `Cc1cn(C2OC(CO[Si](C)(C)C(C)(C)C)C3(OS(=O)(=O)C=C3N)C2O[Si](C)(C)C(C)(C)C)c(=O)n(CCCNC(=O)CNC(=O)[C@@H](N)C(C)C)c1=O` (stereo partly drawn) [CAM-422, H-Val-Gly-NAP-TSAO], the “Conversion % to parent compound by purified CD26, 1 h” value (from here on “Conversion % to parent compound … 1 h”) on purified CD26 (purified CD26 1.5 mUnits, 1 h) was 0%. In addition, on purified CD26 (purified CD26 1.5 mUnits, 4 h), the “Conversion % to parent compound by purified CD26, 4 h” value (shortened to “Conversion % … by purified CD26, 4 h”) is listed as 0%. For the same compound, the “Conversion % to parent compound by purified CD26, 24 h” value (“Conversion % … 24 h” below) on purified CD26 (purified CD26 1.5 mUnits, 24 h) turned out to be 0%. In addition, in data set [1], the “Conversion by 20% human serum, in words” value was “efficiently (but solely) converted to Gly-NAP-TSAO”. In addition, the “Spectrum (~265 nm)” value in data set [2] came to 1.886.
In the case of `Cc1cn(C2OC(CO[Si](C)(C)C(C)(C)C)C3(OS(=O)(=O)C=C3N)C2O[Si](C)(C)C(C)(C)C)c(=O)n(CCCNC(=O)[C@H](C)NC(=O)[C@@H](N)C(C)C)c1=O` (stereo partly drawn) [CAM-424, H-Val-Ala-NAP-TSAO], the “Conversion % to parent compound … 1 h” value on purified CD26 (purified CD26 1.5 mUnits, 1 h) was 0%. The “Conversion % … by purified CD26, 4 h” value on purified CD26 (purified CD26 1.5 mUnits, 4 h) was 6.5%. For the same compound, the “Conversion % … 24 h” value on purified CD26 (purified CD26 1.5 mUnits, 24 h) was determined as 35%. In addition, the “% conversion to parent compound by purified CD26, 1 h” value on purified CD26 (Table 2, purified CD26 1.5 mUnits, 1 h) amounted to 0%. The “% conversion to parent compound by purified CD26, 4 h” value at purified CD26 (Table 2, purified CD26 1.5 mUnits, 4 h) is 6.5%. Further, the “% conversion to parent compound by purified CD26, 24 h” value at purified CD26 (Table 2, purified CD26 1.5 mUnits, 24 h) worked out at 35%. Also, the “Spectrum (~265 nm)” value in data set [2] was 0.650.
Regarding `Cc1cn(C2OC(CO[Si](C)(C)C(C)(C)C)C3(OS(=O)(=O)C=C3N)C2O[Si](C)(C)C(C)(C)C)c(=O)n(CCCNC(=O)C(CC(C)C)NC(=O)C(N)C(C)C)c1=O` (stereo not drawn) [CAM-426, H-Val-Leu-NAP-TSAO], on purified CD26 (purified CD26 1.5 mUnits, 1 h), the “Conversion % to parent compound … 1 h” value turned out to be 0%. For the same compound, the “Conversion % … by purified CD26, 4 h” value on purified CD26 (purified CD26 1.5 mUnits, 4 h) is 0%. The “Conversion % … 24 h” value at purified CD26 (purified CD26 1.5 mUnits, 24 h) stood at 0%. In data set [1], the “Conversion by 20% human serum, in words” value is “convert to a limited extent”.
Turning to `Cc1cn(C2OC(CO[Si](C)(C)C(C)(C)C)C3(OS(=O)(=O)C=C3N)C2O[Si](C)(C)C(C)(C)C)c(=O)n(CCCNC(=O)C(Cc2ccccc2)NC(=O)C(N)C(C)C)c1=O` (stereo not drawn) [CAM-428, H-Val-Phe-NAP-TSAO], on purified CD26 (purified CD26 1.5 mUnits, 1 h), the “Conversion % to parent compound … 1 h” value was 0%. In addition, the “Conversion % … by purified CD26, 4 h” value at purified CD26 (purified CD26 1.5 mUnits, 4 h) was found to be 0%. The “Conversion % … 24 h” value at purified CD26 (purified CD26 1.5 mUnits, 24 h) was 0%. The “Conversion by 20% human serum, in words” value in data set [1] was “convert to a limited extent”.
As for `Cc1cn(C2OC(CO[Si](C)(C)C(C)(C)C)C3(OS(=O)(=O)C=C3N)C2O[Si](C)(C)C(C)(C)C)c(=O)n(CCCNC(=O)[C@H]2CCCN2C(=O)[C@@H](N)C(C)C)c1=O` (stereo partly drawn) [CAM-430, H-Val-D-Pro-NAP-TSAO], the “Conversion % to parent compound … 1 h” value at purified CD26 (purified CD26 1.5 mUnits, 1 h) is given as 0%. The “Conversion % … by purified CD26, 4 h” value at purified CD26 (purified CD26 1.5 mUnits, 4 h) is listed as around 1%. Further, the “Conversion % … 24 h” value on purified CD26 (purified CD26 1.5 mUnits, 24 h) is around 2%. Besides, the “Conversion by 20% human serum, in words” value in data set [1] is recorded as “very stable”. In addition, the “Spectrum (~265 nm)” value in data set [2] amounted to 3.220.
With `Cc1cn(C2OC(CO[Si](C)(C)C(C)(C)C)C3(OS(=O)(=O)C=C3N)C2O[Si](C)(C)C(C)(C)C)c(=O)n(CCCNC(=O)C(NC(=O)C2CCCN2C(=O)C(N)C(C)C)C(C)C)c1=O` (stereo not drawn) [CAM-431, H-Val-Pro-Val-NAP-TSAO], on purified CD26 (purified CD26 1.5 mUnits, 4 h), the “Conversion % … by purified CD26, 4 h” value was determined as 51%. In addition, the “Conversion % … 24 h” value at purified CD26 (purified CD26 1.5 mUnits, 24 h) is reported as around 70%. Moreover, the “Conversion / substrate activity with purified CD26, in words” value at purified CD26 (purified CD26) is “hydrolyse by CD26”. The “Conversion by 20% human serum, in words” value in data set [1] is recorded as “very efficiently converted predominantly to Val-TSAO”.
Turning to `Cc1cn([C@@H]2O[C@H](CO[Si](C)(C)C(C)(C)C)[C@@]3(OS(=O)(=O)C=C3N)[C@H]2O[Si](C)(C)C(C)(C)C)c(=O)n(C)c1=O` [m-3T-TSAO, 3-methyl-TSAO-T, reference compound], the “Spectrum (~265 nm)” value in data set [2] stood at 0.100.
Regarding H-Gly-3.4Hypro-NAP-TSAO [CAM-465], the “Conversion % … by purified CD26, 4 h” value at purified CD26 (purified CD26 1.5 mUnits, 4 h) is on record as 0%. In addition, at purified CD26 (purified CD26 1.5 mUnits, 24 h), the “Conversion % … 24 h” value stood at 0%.
For H-Val-Pro-Val-NHP-TSAO [CAM-411], at purified CD26 (purified CD26 1.5 mUnits, 1 h), the “Conversion % to parent compound … 1 h” value worked out at 33%. The “Conversion % … by purified CD26, 4 h” value on purified CD26 (purified CD26 1.5 mUnits, 4 h) was 60%.
Consider NH2-Val-HyPro(Bzl)-NAP-TSAO [CAM-462], for which the “Conversion % … by purified CD26, 4 h” value at purified CD26 (purified CD26 1.5 mUnits, 4 h) is given as 0%. Further, the “Conversion % … 24 h” value at purified CD26 (purified CD26 1.5 mUnits, 24 h) was found to be 0%.
